Source: patent publication US20260183320A1, “METHOD FOR TREATING CANCER BY COMBINING ALKYLATING AGENT PRODRUG AND CELL CYCLE INHIBITOR” (ASCENTAWITS PHARMACEUTICALS, LTD., priority 2022, published 2026)

Experiments:
[1] = tested on: H460 cell line; assay: H460 cell line proliferation inhibition assay under normoxia and hypoxia (CTG); assay type: cell-based; conditions: for IC50: Homo sapiens, NCI-H460, H460
Description: (§1) 24-well plates with glass inserts were used in assays under hypoxia, and ordinary plastic 24-well plates were used in assays under normoxia. • 2) The cells were incubated overnight at 37° C. in an incubator with 5% CO2. • 3) Treatment with Compounds
(§2) A hypoxia workstation was tuned to create a hypoxic environment, and an oxygen indicator was used to confirm the hypoxia in the workstation.
(§3) After cell plating for 24 hours, the 24-well plates with glass inserts were transferred into the hypoxia workstation.
(§4) The 24-well plates were placed on a shaker, uncovered and shaken to allow air exchange for 5 min.
(§5) For each well for combination therapy, 5 or 10 μL of medium was removed and 5 μL of adavosertib (to a final concentration of 1 or 10 μM) or ceralasertib (to a final concentration of 200 or 2000 μM), followed by incubation for 2 h.
(§6) To each well, 5 or 10 μL of the compound was added at a 100× concentration. Three replicate wells were set up for each group.
(§7) Gentle shaking was carried out until homogeneous mixing of the compound, and the 24-well plates were incubated for 3 hours in the hypoxia workstation with their lids being half opened.
(§8) 24 hours after plating of the cells, for each well for combination therapy, 5 or 10 μL of medium was removed and 5 μL of adavosertib (to a final concentration of 1 or 10 μM) or ceralasertib (to a final concentration of 200 or 2000 μM), followed by incubation for 2 h.
In the H460 cell proliferation inhibition assays, adavosertib was added to final concentrations of 3 μM and 30 μM, and ceralasertib was added to final concentrations of 2 μM, 20 µM and 1000 μM.

[2] = tested on: HT29 cell line; assay: HT29 cell line proliferation inhibition assay under normoxia and hypoxia (CTG); assay type: cell-based; conditions: for additive cytotoxic effect in combination therapy with adavosertib / additive cytotoxic effect in combination therapy with ceralasertib: HT29 (p53-deficient); for Ratio single/combo under Hypoxia / Ratio single/combo under Normoxia / Normoxia/Hypoxia Ratio: HT29; for IC50: Homo sapiens, HT-29, HT29
Description: as §1, §2, §3, §4, §5, §6, §7, §8

[3] = H460 (wild-type p53), normoxia or hypoxia

For Cn1c(COP(=O)(NCCBr)NCCBr)cnc1[N+](=O)[O-] [TH-302], the “additive cytotoxic effect in combination therapy with adavosertib” value (shortened to “additive cytotoxic effect … with adavosertib”) [1, 3] was “did not exhibit any significant additive cytotoxic effects”, the “additive cytotoxic effect in combination therapy with ceralasertib” value (“additive cytotoxic effect … with ceralasertib” below) [1, 3] was “did not exhibit any significant additive cytotoxic effects” and the “Ratio combo/single under Normoxia” value ([1]; H460, 2 μM ceralasertib) was 1.07. For the same compound, the “Ratio single/combo under Hypoxia” value ([1]; H460, 2 μM ceralasertib) was 1.71, the “Ratio single/combo under Hypoxia” value ([1]; H460, 3 μM adavosertib) was 1.56 and the “Ratio single/combo under Normoxia” value ([1]; H460, 3 μM adavosertib) was 1.12. For the same compound, the “Ratio single/combo under Hypoxia” value ([1]; H460, 20 μM ceralasertib) was 1.49, the “Ratio single/combo under Normoxia” value ([1]; H460, 20 μM ceralasertib) was 1.05 and the “Ratio single/combo under Hypoxia” value ([1]; H460, 30 μM adavosertib) was 2.14. The “Ratio single/combo under Hypoxia” value ([1]; H460, 1000 μM ceralasertib) was greater than 6.17, the “Ratio single/combo under Normoxia” value ([1]; H460, 1000 μM ceralasertib) was 1.36 and the “Normoxia/Hypoxia Ratio” value ([1]; H460, monotherapy, Table 17) was 824.83. For the same compound, the “Normoxia/Hypoxia Ratio” value ([1]; H460, monotherapy, Table 19) was 1737.84, the “Normoxia/Hypoxia Ratio” value ([1]; H460, with 2 μM ceralasertib) was 3190.74 and the “Normoxia/Hypoxia Ratio” value ([1]; H460, with 3 μM adavosertib) was 1448.06. The “Normoxia/Hypoxia Ratio” value ([1]; H460, with 20 μM ceralasertib) was 2464.52, the “Normoxia/Hypoxia Ratio” value ([1]; H460, with 30 μM adavosertib) was 1518.50 and the “Normoxia/Hypoxia Ratio” value ([1]; H460, with 1000 μM ceralasertib) was greater than 7853.33. For the same compound, the IC50 ([1]; monotherapy, hypoxia, adavosertib series (Table 17)) was 0.0255 µM, the IC50 ([1]; monotherapy, hypoxia, ceralasertib series (Table 19)) was 0.0185 µM and the IC50 ([1]; monotherapy, normoxia, adavosertib series (Table 17)) was 21 µM. The IC50 ([1]; monotherapy, normoxia, ceralasertib series (Table 19)) was 32.1 µM, the IC50 ([1]; with 2 μM ceralasertib, hypoxia) was 0.0108 µM and the IC50 ([1]; with 2 μM ceralasertib, normoxia) was 34.5 µM. For the same compound, the IC50 ([1]; with 3 μM adavosertib, hypoxia) was 0.0163 µM, the IC50 ([1]; with 3 μM adavosertib, normoxia) was 23.6 µM and the IC50 ([1]; with 20 μM ceralasertib, hypoxia) was 0.0124 µM. For the same compound, the IC50 ([1]; with 20 μM ceralasertib, normoxia) was 30.6 µM, the IC50 ([1]; with 30 μM adavosertib, hypoxia) was 0.0119 µM and the IC50 ([1]; with 30 μM adavosertib, normoxia) was 18.1 µM. The IC50 ([1]; with 1000 μM ceralasertib, hypoxia) was less than 0.003 µM, the IC50 ([1]; with 1000 μM ceralasertib, normoxia) was 23.6 µM and the “additive cytotoxic effect … with adavosertib” value ([2]; adavosertib at a high concentration, hypoxia) was “significant additive cytotoxic effect”. For the same compound, the “additive cytotoxic effect … with ceralasertib” value ([2]; ceralasertib at a high concentration, hypoxia) was “significant additive cytotoxic effect”, the “additive cytotoxic effect … with adavosertib” value ([2]; normoxia) was “did not exhibit any significant additive cytotoxic effects” and the “additive cytotoxic effect … with ceralasertib” value ([2]; normoxia) was “did not exhibit any significant additive cytotoxic effects”. The “Ratio single/combo under Hypoxia” value ([2]; 1 μM adavosertib) was 2.49, the “Ratio single/combo under Normoxia” value ([2]; 1 μM adavosertib) was 2.41 and the “Ratio single/combo under Hypoxia” value ([2]; 10 μM adavosertib) was 8.68. The “Ratio single/combo under Normoxia” value ([2]; 10 μM adavosertib) was 6.57, the “Ratio single/combo under Hypoxia” value ([2]; 200 μM ceralasertib) was 7.11 and the “Ratio single/combo under Normoxia” value ([2]; 200 μM ceralasertib) was 1.24. For the same compound, the “Ratio single/combo under Hypoxia” value ([2]; 2000 μM ceralasertib) was greater than 44.66, the “Ratio single/combo under Normoxia” value ([2]; 2000 μM ceralasertib) was 2.77 and the “Normoxia/Hypoxia Ratio” value ([2]; monotherapy, Table 16) was 74.35. The “Normoxia/Hypoxia Ratio” value ([2]; monotherapy, Table 18) was 51.62, the “Normoxia/Hypoxia Ratio” value ([2]; with 1 μM adavosertib) was 76.80 and the “Normoxia/Hypoxia Ratio” value ([2]; with 10 μM adavosertib) was 98.18. The “Normoxia/Hypoxia Ratio” value ([2]; with 200 μM ceralasertib) was 294.78, the “Normoxia/Hypoxia Ratio” value ([2]; with 2000 μM ceralasertib) was greater than 821.56 and the IC50 ([2]; monotherapy, hypoxia, adavosertib series (Table 16)) was 23.4 µM. The IC50 ([2]; monotherapy, hypoxia, ceralasertib series (Table 18)) was 14.3 µM, the IC50 ([2]; monotherapy, normoxia, adavosertib series (Table 16)) was roughly 1740 µM and the IC50 ([2]; monotherapy, normoxia, ceralasertib series (Table 18)) was 738 µM. It also gave an IC50 ([2]; with 1 μM adavosertib, hypoxia) of 9.38 µM, an IC50 ([2]; with 1 μM adavosertib, normoxia) of 720 µM and an IC50 ([2]; with 10 μM adavosertib, hypoxia) of 2.69 µM. The IC50 ([2]; with 10 μM adavosertib, normoxia) was 264 µM, the IC50 ([2]; with 200 μM ceralasertib, hypoxia) was 2.01 µM and the IC50 ([2]; with 200 μM ceralasertib, normoxia) was 592 µM. It also gave an IC50 ([2]; with 2000 μM ceralasertib, hypoxia) of less than 0.32 µM and an IC50 ([2]; with 2000 μM ceralasertib, normoxia) of 266 µM.
